“Also recorded” adds a separate entry of the source.
Test system: Pneumocystis carinii
Test: Treatment of Pneumocystis carinii pneumonia in Sprague-Dawley rats (extent of disease by histologic score)
Assay type: in vivo, male Sprague-Dawley rats
Details: for Extent of Disease by Histologic Score: number of animals with score 0.5 / Extent of disease by histologic score (combined): number of animals in scoring group 0.5: 0.5 = <10 cysts found per 2 sections; for Extent of Disease by Histologic Score: number of animals with score 1 / Extent of disease by histologic score (combined): number of animals in scoring group 1: 1 = scattered cysts, <5% of lung involved; for Extent of Disease by Histologic Score: number of animals with score 2 / Extent of disease by histologic score (combined): number of animals in scoring group 2: 2 = scattered cysts; for Extent of Disease by Histologic Score: number of animals with score 2: 5-10% lung involved or small foci of infection; for Extent of Disease by Histologic Score: number of animals with score 3 / Extent of disease by histologic score (combined): number of animals in scoring group 3: 3 = scattered cysts; for Extent of disease by histologic score (combined): number of animals in scoring group 0.5 / Extent of disease by histologic score (combined): number of animals in scoring group 1 / Extent of disease by histologic score (combined): number of animals in scoring group 2 / Extent of disease by histologic score (combined): number of animals in scoring group 3 / Extent of disease by histologic score (combined): number of animals in scoring group 4: Table XII composite, 10 mg/kg; for Extent of disease by histologic score (combined): number of animals in scoring group 2: 5-10% of lung involved
Procedure: Induction and Treatment Of Pneumocystis Carinii in Sprague-Dawley Rats
Male Sprague-Dawley rats, barrier raised, non-certified virus free, weighing 150-200g were obtained from Hilltop Laboratories and housed individually. Animals were begun on a low (8%) protein diet (ICN Biomedicals, Cincinnati, OH) and drinking water containing tetracycline (0.5 mg/ml) and dexamethasone (1.0 μg/ml) immediately upon arrival. This treatment was given for the next 8 weeks, monitoring fluid intake daily and weighing animals weekly. Dilutions of the drinking solution were made when animals consumed too much fluid so as to prevent cortisone poisoning. At the beginning of the sixth week, animals were divided into groups of 8 animals each and the test compounds were administered daily by i.v. injection at a dose of 10 mg/kg, unless otherwise noted, for the next 14 days.
Animals were sacrificed at the end of the eighth week by chloroform inhalation and the left lung was removed aseptically and placed in sterile Hank's balanced salts solution without calcium or magnesium (HBSS-) for the ground tissue procedure. The right lung was inflated in situ with 10% […] and removed for histologic examination GMS staining. […]

[1] = 10 mg/kg i.v. daily, 14 days, 10-50% of lung involved with some intense areas of infection
[2] = 10 mg/kg i.v. daily, 14 days, 4 = >50% of lung involved with many intense areas of focal infection
[3] = 10 mg/kg unless otherwise noted

Structure (SMILES) | Extent of Disease by Histologic Score: number of animals with score 0.5 (10 mg/kg i.v. daily, 14 days) | Extent of Disease by Histologic Score: number of animals with score 1 (10 mg/kg i.v. daily, 14 days) | Extent of Disease by Histologic Score: number of animals with score 2 (10 mg/kg i.v. daily, 14 days) | Extent of Disease by Histologic Score: number of animals with score 3 [1] | Extent of Disease by Histologic Score: number of animals with score 4 [2] | Efficacy in treating PCP compared with control [3] | Efficacy in treating PCP compared with pentamidine [3] | Extent of disease by histologic score (combined): number of animals in scoring group 0.5 | Extent of disease by histologic score (combined): number of animals in scoring group 1 | Extent of disease by histologic score (combined): number of animals in scoring group 2 | Extent of disease by histologic score (combined): number of animals in scoring group 3 (10-50% of lung involved) | Extent of disease by histologic score (combined): number of animals in scoring group 4 (4 = >50% of lung involved) | other results
N=C(N)c1ccc(OCCOc2ccc(C(=N)N)cc2N)c(N)c1 [Example 3] | 4 animals | 4 animals | 0 animals | 0 animals | 0 animals | significantly better than the control | approximately comparable to pentamidine in efficacy | 4 animals | 4 animals | 0 animals | 0 animals | 0 animals | –
N=C(N)c1ccc(OCCCOc2ccc(C(=N)N)cc2)cc1 [Example 4] | 3 animals | 4 animals | 1 animals | 0 animals | 0 animals | – | better at controlling the extent of the pcp infection than either para- or meta- pentamidine | 3 animals | 4 animals | 1 animals | 0 animals | 0 animals | –
N=C(N)c1ccc(OCCCOc2ccc(C(=N)N)cc2N)c(N)c1 [Example 5] | 2 animals | 4 animals | 1 animals | 0 animals | 0 animals | significantly better than the control | approximately comparable to pentamidine in efficacy | 2 animals | 4 animals | 1 animals | 0 animals | 0 animals | –
N=C(N)c1ccc(NCCCNc2ccc(C(=N)N)cc2)cc1 [Example 7] | 5 animals | 1 animals | 2 animals | 0 animals | 0 animals | – | better than or equal to pentamidine | 5 animals | 1 animals | 2 animals | 0 animals | 0 animals | Efficacy in treating PCP compared with related compounds of the series (effect of chain length or substituent): most effective
N=C(N)c1ccc(OCCCCOc2ccc(C(=N)N)cc2)cc1 [Example 9, butamidine] | – | – | 0 animals | 0 animals | 0 animals | – | significantly better than pentamidine in controlling pcp; also recorded: significantly better than pentamidine at the 10 mg/kg dosage level | 8 animals | 0 animals | 0 animals | 0 animals | 0 animals | Extent of Disease by Histologic Score: number of animals with score 0.5 (0.1 mg/kg): 0 animals; Extent of Disease by Histologic Score: number of animals with score 1 (0.1 mg/kg): 0 animals; Extent of Disease by Histologic Score: number of animals with score 2 (0.1 mg/kg): 4 animals; Extent of Disease by Histologic Score: number of animals with score 3 (0.1 mg/kg, 10-50% of lung involved): 5 animals; Extent of Disease by Histologic Score: number of animals with score 4 (0.1 mg/kg, 4 = >50% of lung involved): 2 animals; Efficacy in treating PCP compared with pentamidine (1 mg/kg or 0.1 mg/kg): essentially no difference in the two compounds; Extent of Disease by Histologic Score: number of animals with score 0.5 (1 mg/kg): 0 animals; Extent of Disease by Histologic Score: number of animals with score 1 (1 mg/kg): 1 animals; Extent of Disease by Histologic Score: number of animals with score 2 (1 mg/kg): 3 animals; Extent of Disease by Histologic Score: number of animals with score 3 (1 mg/kg, 10-50% of lung involved): 5 animals; Extent of Disease by Histologic Score: number of animals with score 4 (1 mg/kg, 4 = >50% of lung involved): 3 animals
N=C(N)c1ccc(OCCCCOc2ccc(C(=N)N)cc2N)c(N)c1 [Example 10] | 2 animals | 5 animals | 1 animals | 0 animals | 0 animals | significantly better than the control | approximately comparable to pentamidine in efficacy | 2 animals | 5 animals | 1 animals | 0 animals | 0 animals | –
N=C(N)c1ccc(OCCCCCOc2ccc(C(=N)N)cc2N)c(N)c1 [Example 14] | – | – | – | – | 0 animals | significantly better than the control | improved performance in treating pcp; also recorded: approximately comparable to pentamidine in efficacy | 8 animals | 5 animals | 1 animals | 1 animals | 0 animals | –

Reference: US4933347A, “Diamidines and bis(imidazolines) for the treatment of and prophylaxis against pneumocystis carinii pneumonia” (University of North Carolina at Chapel Hill, priority 1988, dated 1990)
